“And” between values parts separate entries of the source, which are not always exact repeats. Equal values may be shown once.
Key:
[1] = format: physicochemical

C[N+](C)(C)CCCNC(=O)CCCCCCCCC(CCCCCCCC(=O)NCCC[N+](C)(C)C)S(=O)(=O)O.[Na+] (centres unmarked) [C18-28, C18 DiDMAPA DiQuat Sulfonate]
Adjuvant 1 h, mL separation (1 h): 0 mL | Anionic 1 h, mL separation (1 h): 0 mL | Adjuvant 24 h, mL separation (24 h): 0 mL | Anionic 24 h, mL separation (24 h): 0 mL | % Separation 1 h [1]: 4% and 3.4% | % Separation 24 h [1]: 4.5% and 3.9%

C[N+](C)(CCCNC(=O)CCCCCCCCC(CCCCCCCC(=O)NCCC[N+](C)(C)CC(=O)[O-])S(=O)(=O)[O-])CC(=O)[O-].[Na+] (centres unmarked) [C18-33, C18 DiBetaine Sulfonate]
Adjuvant 1 h, mL separation (1 h): 0 mL | Anionic 1 h, mL separation (1 h): 0 mL | Nonionic 1 h, mL separation (1 h): 1 mL | Adjuvant 24 h, mL separation (24 h): 0 mL | Anionic 24 h, mL separation (24 h): 0 mL | Nonionic 24 h, mL separation (24 h): 1 mL | % Separation 1 h [1]: 4% and 3% | % Separation 24 h [1]: 4.5% and 3.4%

Reference: patent US9416099B2 (priority 2010, dated 2016)
